We go through 1 compound from patent US20080188540A1, “PHARMACEUTICAL COMPOSITIONS CONTAINING SUBSTITUTED INDOLE ACID DERIVATIVES AS INHIBITORS OF PLASMINOGEN ACTIVATOR INHIBITOR-1 (PAI-1)” (Wyeth, priority 2007, published 2008).

In brackets after ≈: the same amount, converted by molar mass. Several values for one entry are separate records, joined by “and”; a condition that tells them apart may be missing. Identical values can stand only once. Entries after “also recorded” stand apart in the source; their conditions may differ. Like-named read-outs stand apart in the source and are kept apart here.

Series [1] is described as follows: Solubility profile (free acid in HCl/NaOH solution, centrifugation, supernatant assayed by HPLC). The series is classed as physicochemical. The source says: In some embodiments, the [1-(4-tert-Butylbenzyl)-5-(3-methylphenyl)-1H-indol-3-yl](oxo)acetic acid used with the composition of the invention is micronized.
Series [2] is described as follows: Bioavailability of three formulations, single oral gavage dose, plasma pharmacokinetics. The class given is in vivo. Particulars: Formula C, fasted male dogs, individual dogs and Mean; for Plasma concentration: oral 300 mg/kg. The method, then:
Three formulations were evaluated for the bioavilability of [1-(4-tert-butylbenzyl)-5-(3-methylphenyl)-1h-indol-3-yl](oxo)acetic acid in male dogs. Following a single oral (gavage, 300 mg/kg) dose of [1-(4-tert-butylbenzyl)-5-(3-methylphenyl)-1h-indol-3-yl](oxo)acetic acid, blood samples were drawn at 0 (predose), 0.25, 0.5, 1, 2, 3, 4, 6, 8, 10, 12, 24 and 30 hours. The pharmacokinetic parameters, AUC, Cmax, tmax and t1/2, were determined for each dog, and descriptive statistics were calculated for comparison among formulations.
Individual plasma concentrations over time after dosing Formula C are tabulated and plotted in Table 2 and FIG. 2 respectively.

The term solubility denotes the concentration that dissolves in the medium under given conditions.

Regarding `Cc1cccc(-c2ccc3c(c2)c(C(=O)C(=O)O)cn3Cc2ccc(C(C)(C)C)cc2)c1` [[1-(4-tert-Butylbenzyl)-5-(3-methylphenyl)-1H-indol-3-yl](oxo)acetic acid], in series [1] (2% Tween80/0.5% methylcellulose solution versus water), the solubility enhancement is recorded as 26.000 fold. Also, the solubility was 580 µg/mL (≈ 1360 µM) in series [1] (2% Tween80/0.5% methylcellulose solution, pH 3.5, aqueous with cosolvent or surfactant or cyclodextrin, read-out: solubility) and around 0.25 µg/mL (≈ 0.588 µM) in series [1] (aqueous HCl/NaOH solution, aqueous buffer, thermodynamic from solid, in the ionized form (so in the source), read-out: aqueous solubility). Also, in series [1] (free acid in HCl/NaOH solution, 24 hours equilibration (2 hours for pH<4)), the pH-solubility profile entry is “Above pH 4, solubility increases with increasing pH up to pH˜8; also recorded: Above pH 8, solubility decreases due to precipitation of the sodium salt”. Also, the aqueous solubility entry in series [1] (upon ionization in aqueous media) is recorded as “approximately 24 uG/mL”. This compound returned a solubility at 24 h in series [1] (water, thermodynamic from solid, neutral pH 6.9) of 24 µg/mL (≈ 56.4 µM). Further, the Plasma concentration in series [2] (0.25 hours after dose) is 2200 ng/mL and 3390 ng/mL and 3290 ng/mL; in series [2] (0.5 hours after dose), 7500 ng/mL and 10400 ng/mL and 9190 ng/mL; in series [2] (1 hour after dose), 18100 ng/mL and 21100 ng/mL and 20000 ng/mL; in series [2] (2 hours after dose), 26300 ng/mL and 34700 ng/mL and 34100 ng/mL; in series [2] (4 hours after dose) it was 29300 ng/mL and 31900 ng/mL and 46600 ng/mL; in series [2] (6 hours after dose), 26900 ng/mL and 30300 ng/mL and 48000 ng/mL. Besides, the Plasma concentration in series [2] (8 hours after dose) was 26500 ng/mL and 24000 ng/mL and 37600 ng/mL; in series [2] (10 hours after dose), 25300 ng/mL and 40100 ng/mL and 15900 ng/mL and 28200 ng/mL; in series [2] (12 hours after dose) it was 19700 ng/mL and 43600 ng/mL and 12400 ng/mL and 22300 ng/mL; in series [2] (24 hours after dose), 4720 ng/mL and 25900 ng/mL and 2410 ng/mL and 21900 ng/mL; in series [2] (30 hours after dose) it was 2610 ng/mL and 15200 ng/mL and 1240 ng/mL and 10600 ng/mL. This compound also returned a concentration at 0.25 h in series [2] (male, dog, in vivo, po, 300 mg/kg, 0.25 hours after dose) of 2330 ng/mL. Besides, the concentration at 0.5 h in series [2] (male, dog, in vivo, po, 300 mg/kg, 0.5 hours after dose) was 8190 ng/mL. In series [2] (male, dog, in vivo, po, 300 mg/kg, 1 hour after dose), this compound had a concentration at 1 h of 16700 ng/mL. For the same compound, in series [2] (male, dog, in vivo, po, 300 mg/kg, 2 hours after dose), the concentration at 2 h came to 30000 ng/mL. For the same compound, the concentration at 4 h in series [2] (male, dog, in vivo, po, 300 mg/kg, 4 hours after dose) turned out to be 43000 ng/mL. In series [2] (male, dog, in vivo, po, 300 mg/kg, 6 hours after dose), this compound had a concentration at 6 h of 39400 ng/mL. The same compound registered a concentration at 8 h in series [2] (male, dog, in vivo, po, 300 mg/kg, 8 hours after dose) of 31900 ng/mL.
